Results published in paper PMC10847213 (Clinical Pharmacokinetics, 2023).
Entries after “also recorded” stand apart in the source; their conditions may differ. Where two headings read alike, the source gives them in different places.

Legend:
[1] = tested on: P-glycoprotein (P-gp); conditions: MDCK II-MDR1 cells, substrate digoxin; cited from earlier work
[2] = tested on: human lymphoblastoid TK6 cells; conditions: cited from earlier work
[3] = tested on: CYP3A4/5; conditions: cited from earlier work
[4] = after oral administration; cited from earlier work
[5] = tested on: CYP3A4/5; conditions: cited from earlier work; remark: listed apart in the source
[6] = tested on: CYP2C9; conditions: in vitro; cited from earlier work
[7] = tested on: CYP3A4/5; conditions: lorlatinib with itraconazole; cited from earlier work
[8] = tested on: CYP2B6; conditions: in vitro; cited from earlier work
[9] = tested on: human pregnane X receptor (PXR); conditions: cited from earlier work
[10] = tested on: bone marrow of rats; conditions: cited from earlier work
[11] = tested on: UGT; assay: Effect of multiple-dose lorlatinib on the pharmacokinetics of acetaminophen; assay type: in vivo, human
[12] = tested on: CYP2C19; conditions: in vitro; cited from earlier work
[13] = tested on: CYP2C9; assay: Effect of multiple-dose lorlatinib on the pharmacokinetics of tolbutamide; assay type: in vivo, human; conditions: lorlatinib 100 mg QD at steady state; probe tolbutamide
[14] = tested on: CYP3A4/5; conditions: cited from earlier work; remark: listed apart in the source
[15] = tested on: CYP3A4/5; conditions: lorlatinib with modafinil; cited from earlier work
[16] = tested on: CYP2C8; conditions: in vitro; cited from earlier work
[17] = tested on: bacterial assay; conditions: in vitro bacterial assay; cited from earlier work
[18] = molecular target: P-glycoprotein (P-gp) (Homo sapiens, UniProt P08183); assay: Effect of multiple-dose lorlatinib on the pharmacokinetics of fexofenadine; assay type: in vivo; conditions: lorlatinib 100 mg QD at steady state; probe fexofenadine
P-glycoprotein (P-gp) (Homo sapiens, UniProt P08183), sequence (P08183 whole entry): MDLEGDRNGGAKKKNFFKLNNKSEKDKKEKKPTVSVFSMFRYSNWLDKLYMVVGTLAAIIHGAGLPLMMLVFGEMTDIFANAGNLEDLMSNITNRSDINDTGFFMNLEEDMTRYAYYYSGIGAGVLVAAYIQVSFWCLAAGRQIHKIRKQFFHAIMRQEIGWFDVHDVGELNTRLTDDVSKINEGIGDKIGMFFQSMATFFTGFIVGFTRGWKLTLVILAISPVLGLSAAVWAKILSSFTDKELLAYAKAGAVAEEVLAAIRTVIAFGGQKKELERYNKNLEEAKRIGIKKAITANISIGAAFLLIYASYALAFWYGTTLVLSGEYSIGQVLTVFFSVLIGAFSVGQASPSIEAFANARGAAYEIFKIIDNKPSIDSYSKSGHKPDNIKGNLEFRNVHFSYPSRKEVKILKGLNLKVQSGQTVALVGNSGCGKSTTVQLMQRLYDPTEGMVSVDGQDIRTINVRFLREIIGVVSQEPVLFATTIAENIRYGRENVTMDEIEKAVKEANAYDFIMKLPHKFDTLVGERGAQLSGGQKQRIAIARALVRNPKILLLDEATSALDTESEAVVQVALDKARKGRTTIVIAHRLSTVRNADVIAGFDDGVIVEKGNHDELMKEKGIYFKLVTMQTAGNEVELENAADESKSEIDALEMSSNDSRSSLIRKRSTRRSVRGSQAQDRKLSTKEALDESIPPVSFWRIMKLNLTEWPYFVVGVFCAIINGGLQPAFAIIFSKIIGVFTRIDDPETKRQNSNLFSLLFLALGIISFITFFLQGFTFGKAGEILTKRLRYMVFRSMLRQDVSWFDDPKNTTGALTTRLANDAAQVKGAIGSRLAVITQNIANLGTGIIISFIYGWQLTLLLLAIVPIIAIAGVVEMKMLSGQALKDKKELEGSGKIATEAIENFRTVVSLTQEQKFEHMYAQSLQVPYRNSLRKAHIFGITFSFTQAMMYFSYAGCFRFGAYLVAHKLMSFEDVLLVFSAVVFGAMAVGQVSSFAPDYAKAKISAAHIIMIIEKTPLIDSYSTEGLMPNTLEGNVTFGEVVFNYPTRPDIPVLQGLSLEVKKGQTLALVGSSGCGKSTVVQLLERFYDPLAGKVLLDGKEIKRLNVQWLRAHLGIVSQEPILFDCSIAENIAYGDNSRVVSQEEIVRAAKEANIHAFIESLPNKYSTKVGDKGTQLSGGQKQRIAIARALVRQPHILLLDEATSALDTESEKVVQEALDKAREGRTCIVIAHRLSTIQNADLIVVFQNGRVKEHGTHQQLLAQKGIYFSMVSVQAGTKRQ

[19] = tested on: CYP1A2; conditions: in vitro; cited from earlier work
[20] = tested on: plasma proteins; conditions: cited from earlier work
[21] = tested on: CYP2B6; assay: Effect of multiple-dose lorlatinib on the pharmacokinetics of bupropion; assay type: in vivo, human
[22] = tested on: CYP2D6; conditions: in vitro; cited from earlier work
[23] = acetaminophen with lorlatinib 100 mg QD vs acetaminophen alone
[24] = single oral 2-mg dose of midazolam with lorlatinib 150 mg QD

For `C[C@H]1Oc2cc(cnc2N)-c2c(nn(C)c2C#N)CN(C)C(=O)c2ccc(F)cc21` [Lorlatinib, (10R)-7-amino-12-fluoro-2,10,16-trimethyl-15-oxo-10,15,16,17-tetrahydro-2H-8,4-(metheno)pyrazolo[4,3-h][2,5,11]-benzoxadiazacyclotetradecine-3-carbonitrile], the “Inhibition of P-gp efflux” value [1] is listed as “inhibit”, the Aneugenicity in vitro [2] is listed as “aneugenic” and the “Effect on CYP3A4/5” value [3] is listed as “time-dependent inhibitor and inducer”. For the same compound, the Bioavailability [4] was 81%, the “Transaminase / liver enzyme levels” value ([5]; coadministration of lorlatinib with rifampin) was “elevated liver enzyme levels; also recorded: rapid elevations in transaminase values” and the “Reduction in Cmax” value ([5]; lorlatinib with rifampin) was 76%. The “Reduction in mean AUC∞” value ([5]; lorlatinib with rifampin) was 85%, the “Inhibition of CYP2C9” value [6] was “do not inhibit” and the “Increase in AUC∞” value [7] was 42%. For the same compound, the “Increase in Cmax” value [7] was 24%, the “Inhibition of CYP2B6” value [8] was “do not inhibit” and the PXR activation [9] was “activate PXR”. For the same compound, the Aneugenicity in vivo [10] was “aneugenic”, the “Inducer classification, UGT” value ([11]; lorlatinib 100 mg QD at steady state, probe acetaminophen) was “weak (≥ 20% to < 50%)” and the “Inhibition of CYP2C19” value [12] was “do not inhibit”. The “Inducer classification, CYP2C9” value [13] was “weak (≥ 20% to < 50%)”, the “Inducer classification, CYP3A4/5” value ([14]; after multiple dosing, probe midazolam) was “moderate (≥ 50% to < 80%)” and the “Reduction in AUC∞” value [15] was 23%. For the same compound, the “Reduction in Cmax” value [15] was 22%, the “Inhibition of CYP2C8” value [16] was “do not inhibit” and the Mutagenicity [17] was “not mutagenic”. The “Inducer classification, P-gp” value [18] was “moderate (≥ 50% to < 80%)”, the “Inhibition of CYP1A2” value [19] was “do not inhibit” and the “Binding to plasma proteins” value [20] was 66%. For the same compound, the “Inducer classification, CYP2B6” value ([21]; lorlatinib 100 mg QD at steady state, probe bupropion) was “weak (≥ 20% to < 50%)” and the “Inhibition of CYP2D6” value [22] was “do not inhibit”.
With `CC(=O)Nc1ccc(O)cc1` [Acetaminophen, acetaminophen] the “Decrease in AUC∞” value [11, 23] was 45% and the “Decrease in Cmax” value [11, 23] was 28%.
In the case of `Cc1ncc2n1-c1ccc(Cl)cc1C(c1ccccc1F)=NC2` [midazolam], the “Decrease in AUC∞” value [14, 24] is listed as 64% and the “Decrease in Cmax” value [14, 24] is listed as 50%.
In the case of `CC(NC(C)(C)C)C(=O)c1cccc(Cl)c1` (stereo not shown) [Bupropion, bupropion], the “Decrease in Cmax” value ([21]; bupropion with lorlatinib 100 mg QD vs bupropion alone) is reported as 27%.
